Reference: patent US20100179188A1, “NITROXIDE RADICAL AS TREATMENT FOR NEURODEGENERATION” (Office of Technology Transfer, NIH, priority 2007, published 2010)

Key:
[1] = test system: L-ferritin (L-Ft); assay: Western blot of L-ferritin in IRP2−/− embryonic fibroblasts; type: cell-based, mouse; settings: 0.3 and 1.0 mM, 16 h, with or without FAC
Protocol: Cells: Embryonic fibroblasts of 13-day old embryos were isolated from wild type, IRP1−/− mice and IRP2−/− mice as described in LaVaute et al. supra. Myc-tagged HEK 293 Tet-on cell line, in which IRP2 expression was inducible, was prepared and cultured as described Bourdon et al., Blood Cells Mol Dis, 31, 247-255 (2003). Erythroblasts were harvested from bone marrow and purified as described in Cooperman et al., Blood, 106, 1084-1091 (2005).
Western blotting and antibodies: Protein analysis was carried out as described in LaVaute et al., supra. Equal amounts of protein (20-40 μg/lane) were separated on 13% SDSPAGE and transferred to nitrocellulose membranes. The membrane was blocked with 5% non-fat milk, 0.1% Triton X-100 in PBS and probed at RT in the same blocking buffer. IRP1 antibody was prepared against purified hIRP1 and used at 1:5000 dilution. L-ferritin antibody was raised in rabbit from L-ferritin protein purified from mouse livers. […]
To study the effect of Tempo1 on the IRE-binding activity of IRP1, IRP2−/− embryonic fibroblasts that were maintained in culture supplemented with 0, 0.3 and 1.0 mM Tempo1, with or without ferric ammonium citrate (FAC), for 16 h. […] Quantification was performed with the IQMac (IRP1 activity) or NIH Image (protein levels) program. Error bars represent the standard deviation calculated from the results of two different sets of experiments.

[2] = molecular target: T1, IRP1 (Mus musculus, UniProt P28271); assay: IRE binding activity of IRP1 in brain-region lysates of IRP2−/− mice (gel-shift); type: in vivo; parameters: Lysates made from various brain regions of IRP2−/− mice; from tissue; host or cells: mouse brain (cerebellum, forebrain, brain-stem) lysates; settings: lysates from cerebellum, brain-stem and forebrain of IRP2−/− mice, Tempo1 diet vs control diet
T1 sequence (P28271 1-889): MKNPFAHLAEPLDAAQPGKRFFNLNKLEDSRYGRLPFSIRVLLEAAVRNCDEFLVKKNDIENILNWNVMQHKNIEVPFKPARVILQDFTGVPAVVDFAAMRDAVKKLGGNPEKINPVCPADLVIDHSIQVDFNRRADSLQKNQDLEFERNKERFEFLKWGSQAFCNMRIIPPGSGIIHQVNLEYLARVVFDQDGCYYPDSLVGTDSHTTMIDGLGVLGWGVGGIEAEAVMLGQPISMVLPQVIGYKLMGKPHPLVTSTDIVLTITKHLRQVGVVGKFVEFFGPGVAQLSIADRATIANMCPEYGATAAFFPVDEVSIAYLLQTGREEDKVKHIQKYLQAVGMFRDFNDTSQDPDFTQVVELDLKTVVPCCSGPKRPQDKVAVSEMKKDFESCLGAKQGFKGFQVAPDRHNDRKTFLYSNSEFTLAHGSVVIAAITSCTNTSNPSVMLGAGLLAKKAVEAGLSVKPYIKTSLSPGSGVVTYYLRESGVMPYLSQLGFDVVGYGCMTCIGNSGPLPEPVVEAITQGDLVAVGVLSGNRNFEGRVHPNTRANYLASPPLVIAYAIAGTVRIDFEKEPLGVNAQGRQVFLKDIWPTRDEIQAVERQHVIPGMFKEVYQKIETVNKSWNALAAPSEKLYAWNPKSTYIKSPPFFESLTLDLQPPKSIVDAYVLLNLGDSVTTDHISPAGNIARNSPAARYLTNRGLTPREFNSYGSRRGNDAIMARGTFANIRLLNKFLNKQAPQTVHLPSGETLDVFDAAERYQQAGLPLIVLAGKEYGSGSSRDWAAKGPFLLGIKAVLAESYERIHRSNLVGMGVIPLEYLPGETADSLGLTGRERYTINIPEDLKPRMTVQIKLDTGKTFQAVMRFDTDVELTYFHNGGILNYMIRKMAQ
Protocol: Diet: The mice were weaned 3-4 weeks after their birth. Immediately after weaning, mice were maintained on either a Tempo1-supplemented or control diet. In the Tempo1-supplemented diet, powdered Tempo1 was uniformly mixed with bacon-flavored mouse chow by a “cold press” technique (Bio-Serv, Frenchtown, N.J., USA) at a concentration of 10 mg/g of food. Bacon-flavored chow without Tempo1 was used as the control diet.
Tissue and lysate preparation: Animals were euthanized and tissues were frozen in liquid nitrogen immediately after harvesting, and stored at −80° C. under argon. Experiments were performed on tissues that were pulverized in liquid N2-cooled mortars in an anaerobic chamber, and then lysed in lysis buffer that was deaerated by cyclic freezethaw and air-removal with argon. […]
Lysates made from various brain regions of IRP2−/− mice that were maintained on a control diet or on a Tempo1-supplemented diet were analyzed for IRE binding activity of IRP1 and for TfR1, IRP1, and actin protein levels by gel-shift assay and Western blot. […] FIG. 3b is a quantification of the results as intensity of the bands relative to the control, represented here as 100%. Quantification was performed with the IQMac (IRP1 activity) or NIH Image (protein levels) program. Error bars represent the standard deviation calculated from the results of two different sets of animals.

CC1(C)CC(O)CC(C)(C)N1[O] [Tempo1] was tested, and the ferritin levels [1] was “decreased” and the IRE-binding activity [2] was “markedly increased”.
